Source: article PMC5870190, “A three-in-one-bullet for oesophageal cancer: replication fork collapse, spindle attachment failure and enhanced radiosensitivity generated by a ruthenium(II) metallo-intercalator” (Chemical Science, 2017)

Experiments:
[1] = tested on: FLO-1 cells; experiment: Micronuclei formation, FLO-1; assay type: cell-based, human; settings: FLO-1, 44 μM Ru1, 24 h incubation
Protocol: Microscopy and immunofluorescence. Cells were seeded on ibidi 35 mm µ-dishes (Thistle Scientific), allowed to adhere for 24 h and treated as stated in the main text. Cell media was removed, cells washed with PBS and fixed with formaldehyde (4%, 10 mins). Cells were permeablised with Triton (0.5% in PBS, 5 mins) and washed with PBS. Samples were blocked with BSA (3% in PBS-T) for 1 h before incubation with primary antibody (either anti-α-tubulin or anti-γ H2AX, 1/500 dilution) in BSA (3% in PBS-T) for 1 h. Samples were washed 3x in PBS-T and incubated with Alexa Fluor-conjugated secondary antibodies (3% in PBS-T, 1 h, 1/250 dilution). After further washing (3x5 min PBS-T) samples were co-stained with DAPI (5 ng/ml, 2 min), fresh PBS added and visualised by confocal microscopy. Samples were visualised using a Zeiss LSM 780 or LSM 710 inverted confocal microscope and EC Plan-Neofluar 40x/1.30 Oil objectives. […]
(§1) For the determination of mutation induction, from the untreated and each treated condition, 2x10^5 cells were plated in 10 x 100 mm dishes in selective media (regular media

[2] = tested on: FLO-1 human oesophageal adenocarcinoma; experiment: MTT assay, FLO-1 cells; assay type: cell-based
Protocol: (§2) MTT assay. OE21, FLO-1 or hSAEC1-KT cells were seeded in 96 well plates at 20,000 cells/well (for 24 h treatment) or 10,000 cells/well (for 72 h treatment) and allowed to adhere for 24 h before treatment. OE33 cells were seeded in 48 well plates at 40,000 cells/well (24 h treatment) or 20,000 cells/well (72 h treatment). Cancer cell lines were treated with chemicals dissolved in RPMI media for consistency. After incubation, 0.5 mg/ml MTT (thiazolyl blue tetrazolium bromide) dissolved in serum-free medium was added for 60 minutes and the formazan product eluted using acidified isopropanol.
(§3) The absorbance at 540 nm was quantified by plate reader (reference wavelength 650 nm). The metabolic activity of the cell population was determined as a percentage of a negative (solvent) control. […]
as §1

[3] = tested on: hSAEC1-KT normal human small airway epithelial cells; experiment: MTT assay, hSAEC1-KT cells; assay type: cell-based
Protocol: as §2, §3, §1

[4] = tested on: OE21 cells; experiment: DNA fibre assay (replication fork progression); assay type: cell-based, human; settings: Ru1 21 μM or dppz 7 μM during second (IdU) pulse, 30 min
Protocol: DNA fibre assay. The DNA fibre assay was performed as described previously.5 Briefly, OE21 cells were labelled with 30 µM CldU for 30 mins and then 250 µM IdU for an additional 30 mins. Either Ru1 (21 µM) or dppz (7 µM) was added during the second (IdU) nucleotide step (30 mins). DNA replication was terminated using ice-cold PBS and cells lysed (200 mM Tris-HCl pH 7.4, 50 mM EDTA and 0.5% SDS). DNA fibres were spread onto glass slides, fixed with methanol:acetic acid (3:1) and denatured with 2.5 M HCl. After blocking with 2% BSA, fibres were stained with anti-rat and anti-mouse 5-bromo-2′- deoxyuridine (BrdU) that specifically recognise either CldU (Abcam, dilution 1:500) or IdU (BD Sciences, 1:100). Anti-rat Cy3 (Jackson Immuno Research, 1:300) and anti-mouse Alexa-488 (Molecular Probes, 1:300) were used as the respective secondary antibodies. CldU- and IdU-labelled tracts were visualised using a Leica DMRB microscope with a DFC360FX camera and tract length measured by ImageJ software. Statistical analysis was performed by GraphPad Prism software using an unpaired t-test.
Western blotting. Treated samples were washed with cold PBS and lysed in RIPA (radioimmunoprecipitation assay) buffer containing protease inhibitors (10 μg/mL leupeptin, 2 μg/mL pepstatin, 50 μg/mL antipain, 2 μg/mL aprotinin, 20 μg/mL chyprostatin, 2 μg/mL benzamidine, 1 mM phenylmethanesulfonyl fluoride) and phosphatase inhibitors (50 mM NaF, 1 mM […]
Bis-Tris gels and LDS-PAGE. Gels were transferred onto nitrocellulose membrane and probed with primary antibodies in 5% BSA (bovine serum albumin) solutions at the following dilutions: 1/1000 dilution for majority of Cell Signaling antibodies and γH2AX. 1/500 for anti-p-ATR and anti-cleaved caspase 3. 1/200 anti-Chk1. 1/5000-1/10,000 anti- α-tubulin or β-actin.
Reactions were visualised with a suitable secondary antibody conjugated with horseradish peroxidase (1/5000 dilution, Thermo). […]

With [Ru(phen)2(tpphz)]^2+ [Ru1] the “Cells with micronuclei, Percentage” value [1] was 3.3%, the IC50 ([2]; FLO1, 24 h constant exposure) was 42 ± 8 µM and the IC50 ([2]; FLO1, 72 h constant exposure) was 11.5 ± 2.1 µM. The IC50 ([3]; 24 h constant exposure) was 78.5 ± 1.3 µM, the IC50 ([3]; 72 h constant exposure) was 22 ± 2 µM and the “increase in completely stalled/terminated replication forks (CldU tract only) compared to mock-treated” value [4] was 1.7 fold.
